Experimental data as given in patent US4486433A, “Fused-ring amino-pyrazines as bradycardiacs” (Dr. Karl Thomae Gesellschaft mit beschrankter Haftung, priority 1980, dated 1984).

Legend:
[1] = tested on: presynaptic α-adrenoceptors; assay: Inhibition of electrically induced tachycardia in the spinal rat; format: in vivo, rats; settings: i.v.
Excerpt: There is an auto-regulation system of the noradrenaline release at the adrenergic nerve ends. The stimulation of presynaptic α-adrenoreceptors has an inhibiting effect upon the noradrenaline release and thus a limiting effect upon the adrenergic neurotransmission. Accordingly, upon stimulation of these "feedback receptors", the effect of a given adrenergic stimulation on the […] is reduced.
Male laboratory rats having a body weight of 350-400 gm were anesthetized with pentobarbital (50 mgm/kg i.p.), vagotomized, treated with atropine (1 mgm/kg s.c.), and a tracheal cannula was inserted. After enucleation of an eye, the orbita was punctured, the brain was destroyed, and a metal rod was pushed through the vertebral canal. Artificial respiration was applied to the animals, and they were pre-treated with gallamine (4 mgm/kg i.v.). […] Upon insertion of the rod into the vertebral canal, this uninsulated section is positioned in the area of the last cervical vertebra and the first thoracic vertebra. With the aid of a stimulator a supramaximal stimulus (rectangular impulses 50 V, 2 ms; 0.2 Hz; duration of stimulus 25 sec.) was applied against a counter-electrode inserted into the neck skin.
The blood pressure was measured in an A. carotis by means of an electro-mechanical pressure transducer. […] Both of these signals were recorded on a polygraph.

[2] = tested on: postsynaptic α-adrenoreceptos; assay: Hypertensive activity in the spinal rat; format: in vivo, rats; settings: i.v.
Description: 3. Effect on postsynaptic α-adrenoreceptos: Hypertensive activity in the spinal rat
The increase in blood pressure which occurs upon stimulation of postsynaptic α-adrenoreceptos was measured on the spinal rat model.
Male laboratory rats having a body weight of 200-250 gm were anesthetized (1.2 gm/kg urethane i.p., 1 mgm/kg atropine s/c/). Thereafter, the central spinal cord canal was opened, the spinal cord was severed at C1, and the medulla oblongata and the brain were destroyed with a metal sound. Artificial respiration was applied to the animals, and a polyethylene catheter was tied into a jugular vein. The blood pressure was measured in an A. carotis and continuously recorded by means of a Statham element on a Grass polygraph. The test compound was administered i.v. by way of the catheter.
From the raw data thus obtained, the dose of the test compound which increases the arterial blood pressure by 30 mm Hg (D30) was determined.

[3] = tested on: circulation of intact, anesthetized rats; assay: Effect upon blood pressure and heart rate in intact, anesthetized rats after intravenous injection; format: in vivo; settings: 3 mg/kg i.v.
Description: 1. Effect upon blood pressure and heart rate
The changes in the circulation of intact, anesthetized rats after intravenous injection of the test compound were recorded.
Male laboratory rats having a body weight of 120-360 gm were anesthetized with pentobarbital (70 mgm/kg). The animals breathed spontaneously through a tracheal cannula. The blood pressure was continuously measured in an A. carotis with the aid of an electro-mechanical pressure transducer; the pulse wave triggered a tachograph which continuously recorded the heart rate. Both parameters were plotted on a polygraph. The test compound was injected through a catheter into a V. jugularis.
At a dose of 3 mgm/kg i.v. the test compounds produced an initial increase in the blood pressure of short duration and then a long-lasting decrease in the blood pressure. The decrease in the heart rate was distinct and of long duration.

Acute toxicity in mice = settings: mouse, in vivo, observation time 14 days
Description: The acute toxicity was determined in mice after oral or intravenous administration. Observation time: 14 days.

With CCN1CCc2nc(N)cnc2C1.Cl.Cl [G, 6-Ethyl-2-amino-5,6,7,8-tetrahydro-pyrido[3,4-b]pyrazine dihydrochloride] the “D50 (dose which inhibits the electrically induced tachycardia by 50%)” value [1] was 670 μgm/kg, the “D30 (dose which increases the arterial blood pressure by 30 mm Hg)” value [2] was 1.4 mgm/kg and the “Blood pressure, depressor phase (maximum value)” value (from here on “Blood pressure, depressor phase”) [3] was -41 mm Hg. For the same molecule, the “Blood pressure, pressor phase (maximum value)” value (shortened to “Blood pressure, pressor phase”) [3] was “+6 mm Hg” and the “Heart rate reduction (maximum value)” value [3] was -145 beats/minute.

For CCN1CCc2nc(C)c(N)nc2CC1.Cl.Cl [F, 7-Ethyl-2-amino-6,7,8,9-tetrahydro-3-methyl-5H-pyrazino-[2,3-d]azepine dihydrochloride], the “Blood pressure, depressor phase” value [3] was -10 mm Hg, the “Blood pressure, pressor phase” value [3] was “+38 mm Hg” and the “Heart rate reduction (maximum value)” value [3] was -78 beats/minute.

For Cl.Nc1cnc2c(n1)CCN(C1CC1)CC2 [H, 2-Amino-7-cyclopropyl-6,7,8,9-tetrahydro-5H-pyrazino[2,3-d]azepine hydrochloride], the “Blood pressure, depressor phase” value [3] was -28 mm Hg, the “Blood pressure, pressor phase” value [3] was “+51 mm Hg” and the “Heart rate reduction (maximum value)” value [3] was -110 beats/minute.

For CCN1CCc2nc(N)c(Br)nc2CC1.Cl [Compound D, 7-Ethyl-2-amino-3-bromo-6,7,8,9-tetrahydro-5H-pyrazino[2,3-d]azepine hydrochloride], the “Blood pressure, depressor phase” value [3] was -5 mm Hg, the “Blood pressure, pressor phase” value [3] was “+50 mm Hg” and the “Heart rate reduction (maximum value)” value [3] was -55 beats/minute.

With CCN1CCc2nc(N)c(Cl)nc2CC1.Cl [E, 7-Ethyl-2-amino-3-chloro-6,7,8,9-tetrahydro-5H-pyrazino[2,3-d]azepine hydrochloride] the “Blood pressure, depressor phase” value [3] was -11 mm Hg, the “Blood pressure, pressor phase” value [3] was “+32 mm Hg” and the “Heart rate reduction (maximum value)” value [3] was -70 beats/minute.

With CCN1CCc2ncc(N)nc2CC1.Cl.Cl [A, 7-Ethyl-2-amino-6,7,8,9-tetrahydro-5H-pyrazino[2,3-d]azepine dihydrochloride] the “D50 (dose which inhibits the electrically induced tachycardia by 50%)” value [1] was 28 μgm/kg, the LD50 at 336 h (Acute toxicity in mice; iv) was 215 mg/kg and the LD50 at 336 h (Acute toxicity in mice; po) was 1250 mg/kg. The “D30 (dose which increases the arterial blood pressure by 30 mm Hg)” value [2] was 480 μgm/kg, the “Blood pressure, depressor phase” value [3] was -20 mm Hg and the “Blood pressure, pressor phase” value [3] was “+61 mm Hg”. For the same molecule, the “Heart rate reduction (maximum value)” value [3] was -116 beats/minute.

In the case of C=CCN1CCc2ncc(N)nc2CC1.Cl.Cl [B, 7-Allyl-2-amino-6,7,8,9-tetrahydro-5H-pyrazino[2,3-d]azepine dihydrochloride], the “D30 (dose which increases the arterial blood pressure by 30 mm Hg)” value [2] is reported as 2.6 mgm/kg, the “Blood pressure, depressor phase” value [3] is reported as -20 mm Hg and the “Blood pressure, pressor phase” value [3] is reported as “+40 mm Hg”. For the same molecule, the “Heart rate reduction (maximum value)” value [3] was -122 beats/minute.

In the case of CN1CCc2ncc(N)nc2CC1.Cl.Cl [C, 2-Amino-6,7,8,9-tetrahydro-7-methyl-5H-pyrazino[2,3-d]azepine dihydrochloride], the “Blood pressure, depressor phase” value [3] is reported as -36 mm Hg, the “Blood pressure, pressor phase” value [3] is reported as “+26 mm Hg” and the “Heart rate reduction (maximum value)” value [3] is reported as -105 beats/minute.
